Where two headings read alike, the source gives them in different places.
Assays:
[1] = tested on: Human airway epithelial cell line BEAS-2B; experiment: Cytotoxicity test (WST-8 assay) after direct contact of test liquids with cells for about 2 hours; normalized cell survival rate; details: direct contact with test liquid about 2 hours, WST-8 24 hours after contact, control liquid (0.5% FBS-containing RPMI-1640) = 1
[2] = tested on: leaves of Arabidopsis thaliana
Description: (§1) Further, the leaves used for the test after observation were soaked in water over 16 hours followed by observation. Water was used as a control. Although water is cytotoxic to naked cells, it is not cytotoxic to cells having cell walls, and thus could be used as a control.

[3] = tested on: leaves of Arabidopsis thaliana; experiment: Soaking of plant leaves in organic solvents, observation of appearance; details: for change in the appearance of leaves: leaf of A. thaliana soaked in the solvent, observed after 2 hours
Description: as §1

[4] = tested on: human airway epithelial cells Calu-3; experiment: WST-8 absorbance of cells on porous support after contact with solutions of PFOA in hydrofluoroether; type: cell-based; details: PFOA in hydrofluoroether (C4F9OC2H5); for absorbance (WST-8): 15 hours
Description: In the present Example, hydrofluoroether (C4F9OC2H5) was used as the non-hydrophilic liquid and perfluorooctanoic acid (PFOA) was used as the non-hydrophilic substance. Solutions of PFOA in hydrofluoroether having various PFOA concentrations ([…], 1 and 10 g/L) were prepared. The solutions correspond to the second liquid of the present disclosure.
In the similar manner as Example 4 except that the solutions of PFOA in hydrofluoroether were used, the procedure was carried out up to the pre-cultivation step. Thereafter the cultivation step was carried out by using the solutions as the second liquid and leaving the device in the CO2 incubator for 15 hours.
Thereafter […], was removed from the cavity of the insert 24, 200 μl of an aqueous solution of a medium containing WST-8 (2-(2-methoxy-4-nitrophenyl)-3(4-nitrophenyl)-5-(2,4-disulfophenyl)-2H-tetrazolium), which is a kind of a tetrazolium salt, was added and the device was let to stand in the CO2 incubator for 20 minutes for cultivation.
Thereafter 100 μl of the medium was transferred from the insert 24 of the cell structure into a microplate and the absorbance at the wavelengths 450 nm and 600 nm was measured.

[5] = tested on: human airway epithelial cells Calu-3; experiment: Transepithelial electric resistance (TER) of cells on porous support after contact with non-hydrophilic liquids; type: cell-based; details: Calu-3, 3 hours contact with 200 ul liquid, TER after 24 hours in fresh medium, FIG. 18
Description: In the present Example, an action of non-hydrophilic liquids having the fluorocarbon structure was evaluated using human airway epithelial cells Calu-3. As a device for evaluation, the evaluation device 20 illustrated in FIG. 16 was used. […] At the bottom of each insert, a porous support 28 is provided that can retain and cultivate cells.
Cells were inoculated on each support 28 in the insert 24 and the space in the well 22 other than the insert 24 and the cavity in the insert 24 were filled with the cell growth medium. The evaluation device 20 was then left to stand in a CO2 incubator for a few days to allow dense growth of cells on the whole upper surface of the support 28, thereby carrying out the pre-cultivation step. In the pre-cultivation step, the transepithelial electric resistance (TER) was measured over time to confirm that a barrier (coverage and functional tight junctions) was constructed on the surface of the cells that is in contact with the insert 24.
Next, a cell structure illustrated in FIG. 17 was prepared. […]
After 24 hours, the cells on the support 28 in the cell structure removed from the CO2 incubator were again measured for the transepithelial electric resistance (TER) after removal of the growth medium in order to confirm the extent of formation of the cell barrier. […]

Row | Molecule | Normalized cell survival rate [1] | also measured
1 | O [P1, Water, reference compound] | 0.01 | 
2 | CCO [P2, Ethanol, reference compound] | 0.01 | change in the appearance of leaves [2]: eroded epidermal cells of the leaves of A. thaliana and caused effusion of chlorophyll
3 | CC(C)=O [P3, Acetone, reference compound] | 0.01 | change in the appearance of leaves [3]: eroded epidermal cells of the leaves of A. thaliana and caused effusion of chlorophyll; change in the appearance of leaves after subsequent soaking in water ([3]; leaves after the 2 hours test soaked in water over 16 hours, compared to control water): caused atrophy (deformation) of leaves of A. thaliana
4 | CCOCC [P4, Diethyl ether, reference compound] | 0.01 | 
5 | O=C(O)C(F)(F)C(F)(F)C(F)(F)C(F)(F)C(F)(F)C(F)(F)C(F)(F)F [PFOA, perfluorooctanoic acid] |  | PFOA concentration with an action of causing cell death ([4]; Calu-3, 15 hours): ≥ 1 g/L; absorbance (WST-8) ([4]; at or above 1 g/L of PFOA): hardly detected; absorbance (WST-8) ([4]; until PFOA concentration 0.1 g/L): almost at the same level
6 | FC(F)(F)c1cccc(C(F)(F)F)c1 [S1, 1,3-Bis(Trifluoromethyl) Benzene] | 0.01 | 
7 | FC(F)(F)C(F)(F)C(F)(F)C(F)(F)C(F)(F)C(F)(F)F [S2, Perfluorohexane, PFC 5060] |  | effect on cell death or intercellular tight junctions (TER) [5]: significantly promoted cell death and the like
8 | OCC(F)(F)C(F)(F)C(F)(F)C(F)(F)C(F)(F)C(F)F [S4, 1H,1H,7H-Dodecafluoro-1-heptanol] | 0.01 | 
9 | COC(F)(F)C(F)(F)C(F)(F)C(F)(F)F [S5, HFE-7100] | 1.04 | 
10 | COC(F)(C(F)(F)C(F)(F)F)C(F)(C(F)(F)F)C(F)(F)F (stereo not shown) [S7, HFE-7300] | 0.92 | change in the appearance of leaves [3]: did not change an appearance of leaves of A. thaliana
11 | C[Si](C)(C)O[Si](C)(C)C [S16, OS-10 (Hexamethyldisiloxane)] | 0 | 
12 | C[Si](C)(C)O[Si](C)(C)O[Si](C)(C)C [S17, OS-20 (Octamethyltrisiloxane)] | 0.05 | 
13 | C[Si](C)(C)O[Si](C)(C)O[Si](C)(C)O[Si](C)(C)C [S18, OS-30 (Decamethyltetrasiloxane)] | 0.92 | 
14 | C[Si]1(C)O[Si](C)(C)O[Si](C)(C)O[Si](C)(C)O[Si](C)(C)O1 [S19, Decamethylcyclopentasiloxane] | 0.92 | 
15 | FC(F)(F)C(F)(F)C(F)(F)C(F)(F)C(F)(F)C(F)(F)C(F)(F)C(F)(F)Br [S20, 1-Bromoperfluorooctane] | 1.2 | 
16 | COC(F)(F)C(F)(F)C(F)(F)F [S21, HFE-7000] | 1.01 | 
17 | HFE-7200 [S6] | 0.88 | effect on cell death or intercellular tight junctions (TER) [5]: had less effect on cell death or intercellular tight junctions than perfluorohexane, which effect was almost the same as the controls; change in the appearance of leaves [3]: did not change an appearance of leaves of A. thaliana
